pEC50: −log10 of the molar value. The source made the active and inactive calls. The calls are words filed in the database; no cut-off is given here.
Key:
HEK293 = test: Selectivity ratio of EC50 for human GLP1R expressed in HEK293 cells to EC50 for human GLP2R expressed in HEK293; format: cell-based
[1] = target: T1, Glucagon-like peptide 2 receptor (Homo sapiens, UniProt O95838); test: Agonist activity at human GLP2R expressed in HEK293 cells after 5 hrs by luciferase reporter gene assay; format: cell-based
T1 sequence (O95838 whole entry): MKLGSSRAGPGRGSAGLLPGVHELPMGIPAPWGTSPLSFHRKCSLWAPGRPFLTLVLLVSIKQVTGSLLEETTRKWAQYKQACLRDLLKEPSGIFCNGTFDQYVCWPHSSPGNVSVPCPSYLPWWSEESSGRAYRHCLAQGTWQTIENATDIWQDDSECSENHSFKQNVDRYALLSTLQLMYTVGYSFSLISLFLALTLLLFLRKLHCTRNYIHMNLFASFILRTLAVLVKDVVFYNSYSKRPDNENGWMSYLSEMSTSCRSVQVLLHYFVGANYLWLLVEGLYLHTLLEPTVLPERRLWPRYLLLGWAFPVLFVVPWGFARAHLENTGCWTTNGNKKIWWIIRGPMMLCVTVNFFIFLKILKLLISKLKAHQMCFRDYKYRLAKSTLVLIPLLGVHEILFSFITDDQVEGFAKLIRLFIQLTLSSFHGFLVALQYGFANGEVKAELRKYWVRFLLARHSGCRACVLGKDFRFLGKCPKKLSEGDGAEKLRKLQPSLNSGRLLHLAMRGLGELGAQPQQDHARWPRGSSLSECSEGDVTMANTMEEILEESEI

[2] = target: Glucagon-like peptide 1 receptor (Homo sapiens, UniProt P43220); test: Agonist activity at human GLP1R expressed in HEK293 cells after 5 hrs by luciferase reporter gene assay; format: cell-based
Chain of Glucagon-like peptide 1 receptor (P43220 whole entry): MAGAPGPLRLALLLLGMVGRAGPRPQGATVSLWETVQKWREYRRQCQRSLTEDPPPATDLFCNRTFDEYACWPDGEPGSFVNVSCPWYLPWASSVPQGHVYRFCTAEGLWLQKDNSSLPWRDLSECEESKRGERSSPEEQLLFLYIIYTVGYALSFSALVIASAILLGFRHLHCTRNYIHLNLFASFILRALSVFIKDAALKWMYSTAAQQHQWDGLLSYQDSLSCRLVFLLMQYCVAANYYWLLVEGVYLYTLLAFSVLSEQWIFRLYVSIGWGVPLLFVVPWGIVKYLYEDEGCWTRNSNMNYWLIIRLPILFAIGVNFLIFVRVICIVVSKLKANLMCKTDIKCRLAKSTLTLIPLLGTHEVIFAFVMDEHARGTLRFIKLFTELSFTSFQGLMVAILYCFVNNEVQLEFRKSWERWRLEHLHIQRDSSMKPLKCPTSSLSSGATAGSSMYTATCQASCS

[3] = Systemic clearance in Sprague-Dawley rat at 0.2 mg/kg, iv through cassette dosing measured up to 300 mins by LC/MS/MS analysis; format: ADME, organism-based; conditions: in vivo
[4] = target: Glucagon receptor (Homo sapiens) (UniProt P47871); test: Agonist activity at human GCGR expressed in HEK293 cells after 5 hrs by luciferase reporter gene assay; format: cell-based
Chain of Glucagon receptor (Homo sapiens) (P47871 whole entry): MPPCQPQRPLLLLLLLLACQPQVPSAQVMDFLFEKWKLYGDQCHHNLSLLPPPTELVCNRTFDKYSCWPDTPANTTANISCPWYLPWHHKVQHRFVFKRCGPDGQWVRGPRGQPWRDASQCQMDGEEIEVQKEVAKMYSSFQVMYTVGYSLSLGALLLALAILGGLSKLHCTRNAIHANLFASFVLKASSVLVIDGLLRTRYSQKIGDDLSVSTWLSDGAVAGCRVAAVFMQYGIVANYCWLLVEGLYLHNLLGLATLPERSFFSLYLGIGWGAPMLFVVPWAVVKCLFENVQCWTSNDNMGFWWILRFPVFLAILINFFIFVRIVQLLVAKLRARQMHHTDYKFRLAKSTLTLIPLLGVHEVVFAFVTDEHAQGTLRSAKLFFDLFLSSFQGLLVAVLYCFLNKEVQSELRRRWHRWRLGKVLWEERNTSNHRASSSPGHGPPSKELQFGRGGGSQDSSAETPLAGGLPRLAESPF

SMILES	Ratio EC50 (HEK293)	pEC50 [1]	pEC50 [2]	clearance [3] [mL/min/kg]	Activity [4]
CCCCC(NC(=O)[C@H](CCC(=O)O)NC(=O)[C@H](CC(=O)O)NC(=O)[C@H](CO)NC(=O)[C@H](Cc1ccccc1)NC(=O)[C@H](CO)NC(=O)CNC(=O)[C@H](CC(=O)O)NC(=O)CNC(=O)[C@@H](N)Cc1cnc[nH]1)C(=O)N[C@H](Cc1ccccc1)C(=O)N[C@H](C(=O)N[C@H](C(=O)N[C@@H](CC(C)C)C(=O)N[C@@H](CC(=O)O)C(=O)N[C@@H](CC(C)C)C(=O)N[C@@H](CC(C)C)C(=O)N[C@@H](C)C(=O)N[C@@H](C)C(=O)N[C@@H](CCCNC(=N)N)C(=O)N[C@@H](CC(=O)O)C(=O)N[C@@H](Cc1ccccc1)C(=O)N[C@H](C(=O)N[C@@H](CC(N)=O)C(=O)N[C@@H](Cc1c[nH]c2ccccc12)C(=O)N[C@@H](CC(C)C)C(=O)N[C@H](C(=O)N[C@@H](CCC(N)=O)C(=O)N[C@H](C(=O)N[C@@H](CCCCN)C(=O)N[C@H](C(=O)N[C@H](C(=O)N[C@@H](CC(=O)O)C(=O)NCc1ccncc1)[C@@H](C)O)[C@@H](C)CC)[C@@H](C)O)[C@@H](C)CC)[C@@H](C)CC)[C@@H](C)CC)[C@@H](C)O (stereo partly drawn)	> 25000	10.40	< 6.00	0.27	
CCCCC(NC(=O)[C@H](CCC(=O)O)NC(=O)[C@H](CC(=O)O)NC(=O)[C@H](CO)NC(=O)[C@H](Cc1ccccc1)NC(=O)[C@H](CO)NC(=O)CNC(=O)[C@H](CC(=O)O)NC(=O)CNC(=O)[C@@H](N)Cc1cnc[nH]1)C(=O)N[C@H](Cc1cnc[nH]1)C(=O)N[C@H](C(=O)N[C@H](C(=O)N[C@@H](CC(C)C)C(=O)N[C@@H](CC(=O)O)C(=O)N[C@@H](CC(N)=O)C(=O)N[C@@H](CC(C)C)C(=O)N[C@@H](C)C(=O)N[C@@H](C)C(=O)N[C@@H](CCCNC(=N)N)C(=O)N[C@@H](CC(=O)O)C(=O)N[C@@H](Cc1ccccc1)C(=O)N[C@H](C(=O)N[C@@H](CC(N)=O)C(=O)N[C@@H](Cc1c[nH]c2ccccc12)C(=O)N[C@@H](CC(C)C)C(=O)N[C@H](C(=O)N[C@@H](CCC(N)=O)C(=O)N[C@H](C(=O)N[C@@H](CCCCN)C(N)=O)[C@@H](C)O)[C@@H](C)CC)[C@@H](C)CC)[C@@H](C)CC)[C@@H](C)O (stereo partly drawn)	> 5000	9.70	< 6.00	0.73	inactive
CCCCC(NC(=O)[C@H](CCC(=O)O)NC(=O)[C@H](CC(=O)O)NC(=O)[C@H](CO)NC(=O)[C@H](Cc1ccccc1)NC(=O)[C@H](CO)NC(=O)CNC(=O)[C@H](CC(=O)O)NC(=O)CNC(=O)[C@@H](N)Cc1cnc[nH]1)C(=O)N[C@H](Cc1cccs1)C(=O)N[C@H](C(=O)N[C@H](C(=O)N[C@@H](CC(C)C)C(=O)N[C@@H](CC(=O)O)C(=O)N[C@@H](CC(C)C)C(=O)N[C@@H](CC(C)C)C(=O)N[C@@H](C)C(=O)N[C@@H](C)C(=O)N[C@@H](CCCNC(=N)N)C(=O)N[C@@H](CC(=O)O)C(=O)N[C@@H](Cc1ccccc1)C(=O)N[C@H](C(=O)N[C@@H](CC(N)=O)C(=O)N[C@@H](Cc1c[nH]c2ccccc12)C(=O)N[C@@H](CC(C)C)C(=O)N[C@H](C(=O)N[C@@H](CCC(N)=O)C(=O)N[C@H](C(=O)N[C@@H](CCCCN)C(N)=O)[C@@H](C)O)[C@@H](C)CC)[C@@H](C)CC)[C@@H](C)CC)[C@@H](C)O (stereo partly drawn)	> 12000	10.10	< 6.00	0.33	
CCCCC(NC(=O)[C@H](CCC(=O)O)NC(=O)[C@H](CC(=O)O)NC(=O)[C@H](CO)NC(=O)[C@H](Cc1ccccc1)NC(=O)[C@H](CO)NC(=O)CNC(=O)[C@H](CC(=O)O)NC(=O)CNC(=O)[C@@H](N)Cc1cnc[nH]1)C(=O)N[C@H](Cc1cccc(Cl)c1)C(=O)N[C@H](C(=O)N[C@H](C(=O)N[C@@H](CC(C)C)C(=O)N[C@@H](CC(=O)O)C(=O)N[C@@H](Cc1ccccc1)C(=O)N[C@@H](CC(C)C)C(=O)N[C@@H](C)C(=O)N[C@@H](C)C(=O)N[C@@H](CCCNC(=N)N)C(=O)N[C@@H](CC(=O)O)C(=O)N[C@@H](Cc1ccccc1)C(=O)N[C@H](C(=O)N[C@@H](CC(N)=O)C(=O)N[C@@H](Cc1c[nH]c2ccccc12)C(=O)N[C@@H](CC(C)C)C(=O)N[C@H](C(=O)N[C@@H](CCC(N)=O)C(=O)N[C@H](C(=O)N[C@@H](CCCCN)C(=O)N[C@H](C(=O)N[C@H](C(=O)N[C@@H](CC(=O)O)C(N)=O)[C@@H](C)O)[C@@H](C)CC)[C@@H](C)O)[C@@H](C)CC)[C@@H](C)CC)[C@@H](C)CC)[C@@H](C)O (stereo partly drawn)	> 7600	9.89	< 6.00	0.12	
CCCCC(NC(=O)[C@H](CCC(=O)O)NC(=O)[C@H](CC(=O)O)NC(=O)[C@H](CO)NC(=O)[C@H](Cc1ccccc1)NC(=O)[C@H](CO)NC(=O)CNC(=O)[C@H](CC(=O)O)NC(=O)CNC(=O)[C@@H](N)Cc1cnc[nH]1)C(=O)N[C@H](Cc1cccc(Cl)c1)C(=O)N[C@H](C(=O)N[C@H](C(=O)N[C@@H](CC(C)C)C(=O)N[C@@H](CC(=O)O)C(=O)N[C@@H](CC(C)C)C(=O)N[C@@H](CC(C)C)C(=O)N[C@@H](C)C(=O)N[C@@H](C)C(=O)N[C@@H](CCCNC(=N)N)C(=O)N[C@@H](CC(=O)O)C(=O)N[C@@H](Cc1ccccc1)C(=O)N[C@H](C(=O)N[C@@H](CC(N)=O)C(=O)N[C@@H](Cc1c[nH]c2ccccc12)C(=O)N[C@@H](CC(C)C)C(=O)N[C@H](C(=O)N[C@@H](CCC(N)=O)C(=O)N[C@H](C(=O)N[C@@H](CCCCN)C(=O)N[C@H](C(=O)N[C@H](C(=O)N[C@@H](CC(=O)O)C(N)=O)[C@@H](C)O)[C@@H](C)CC)[C@@H](C)O)[C@@H](C)CC)[C@@H](C)CC)[C@@H](C)CC)[C@@H](C)O (stereo partly drawn)	> 11000	10.05	< 6.00	0.2	
CCCCC(NC(=O)[C@H](CCC(=O)O)NC(=O)[C@H](CC(=O)O)NC(=O)[C@H](CO)NC(=O)[C@H](Cc1ccccc1)NC(=O)[C@H](CO)NC(=O)CNC(=O)[C@H](CC(=O)O)NC(=O)CNC(=O)[C@@H](N)Cc1cnc[nH]1)C(=O)N[C@H](Cc1ccccc1)C(=O)N[C@H](C(=O)N[C@H](C(=O)N[C@@H](CC(C)C)C(=O)N[C@@H](CC(=O)O)C(=O)N[C@@H](Cc1ccc(O)cc1)C(=O)N[C@@H](CC(C)C)C(=O)N[C@@H](C)C(=O)N[C@@H](C)C(=O)N[C@@H](CCCNC(=N)N)C(=O)N[C@@H](CC(=O)O)C(=O)N[C@@H](Cc1ccccc1)C(=O)N[C@H](C(=O)N[C@@H](CC(N)=O)C(=O)N[C@@H](Cc1c[nH]c2ccccc12)C(=O)N[C@@H](CC(C)C)C(=O)N[C@H](C(=O)N[C@@H](CCC(N)=O)C(=O)N[C@H](C(=O)N[C@@H](CCCCN)C(N)=O)[C@@H](C)O)[C@@H](C)CC)[C@@H](C)CC)[C@@H](C)CC)[C@@H](C)O (stereo partly drawn)	1200	10.15	7.05	0.48	
CCCCC(NC(=O)[C@H](CCC(=O)O)NC(=O)[C@H](CC(=O)O)NC(=O)[C@H](CO)NC(=O)[C@H](Cc1ccccc1)NC(=O)[C@H](CO)NC(=O)CNC(=O)[C@H](CC(=O)O)NC(=O)CNC(=O)[C@@H](N)Cc1cnc[nH]1)C(=O)N[C@H](Cc1cccs1)C(=O)N[C@H](C(=O)N[C@H](C(=O)N[C@@H](CC(C)C)C(=O)N[C@@H](CC(=O)O)C(=O)N[C@@H](Cc1ccccc1)C(=O)N[C@@H](CC(C)C)C(=O)N[C@@H](C)C(=O)N[C@@H](C)C(=O)N[C@@H](CCCNC(=N)N)C(=O)N[C@@H](CC(=O)O)C(=O)N[C@@H](Cc1ccccc1)C(=O)N[C@H](C(=O)N[C@@H](CC(N)=O)C(=O)N[C@@H](Cc1c[nH]c2ccccc12)C(=O)N[C@@H](CC(C)C)C(=O)N[C@H](C(=O)N[C@@H](CCC(N)=O)C(=O)N[C@H](C(=O)N[C@@H](CCCCN)C(=O)N[C@H](C(=O)N[C@H](C(=O)N[C@@H](CC(=O)O)C(N)=O)[C@@H](C)O)[C@@H](C)CC)[C@@H](C)O)[C@@H](C)CC)[C@@H](C)CC)[C@@H](C)CC)[C@@H](C)O (stereo partly drawn)	> 14000	10.15	< 6.00	0.15	
CCCCC(NC(=O)[C@H](CCC(=O)O)NC(=O)[C@H](CC(=O)O)NC(=O)[C@H](CO)NC(=O)[C@H](Cc1ccccc1)NC(=O)[C@H](CO)NC(=O)CNC(=O)[C@H](CC(=O)O)NC(=O)CNC(=O)[C@@H](N)Cc1cnc[nH]1)C(=O)N[C@H](Cc1ccccc1)C(=O)N[C@H](C(=O)N[C@H](C(=O)N[C@@H](CC(C)C)C(=O)N[C@@H](CC(=O)O)C(=O)N[C@@H](Cc1ccccc1)C(=O)N[C@@H](CC(C)C)C(=O)N[C@@H](C)C(=O)N[C@@H](C)C(=O)N[C@@H](CCCNC(=N)N)C(=O)N[C@@H](CC(=O)O)C(=O)N[C@@H](Cc1ccccc1)C(=O)N[C@H](C(=O)N[C@@H](CC(N)=O)C(=O)N[C@@H](Cc1c[nH]c2ccccc12)C(=O)N[C@@H](CC(C)C)C(=O)N[C@H](C(=O)N[C@@H](CCC(N)=O)C(=O)N[C@H](C(=O)N[C@@H](CCCCN)C(N)=O)[C@@H](C)O)[C@@H](C)CC)[C@@H](C)CC)[C@@H](C)CC)[C@@H](C)O (stereo partly drawn)	> 11000	10.05	< 6.00	0.3	
